The assay has as its system Dengue-2 (Strain New Guinea C). Kind of assay: Viral yield assay against Dengue-2 in Vero cells. Type of assay: cell-based, Dengue virus. Conditions: Dengue virus, read-out: Activity (EC50 class) against Dengue-2 Virus in Vero cells. The method, boiled down: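 Progeny virus from compound-treated Vero monolayers infected at an MOI of 0.1 is collected after 48 h at 37° C and titered on Vero cells. DMSO serves as control.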

The mark [1] stands for this setting: Vero cells, MOI 0.1, harvested 48 hours post infection.

Like-named read-outs stand apart in the source and are kept apart here. Bounds are passed on as bounds.

For the molecule `Cc1cc(NC(=O)c2sc3nc(C)c(C)c(C)c3c2N)no1` [Compound 255, 3-Amino-4,5,6-trimethyl-thieno[2,3-b]pyridine-2-carboxylic acid (5-methyl-isoxazol-3-yl)-amide], the EC50 under setting [1] is more than 25 µM. As for `CC(=O)c1cccc(NC(=O)c2sc3nc(C)cc(C)c3c2N)c1` [Compound 256, 3-Amino-4,6-dimethyl-thieno[2,3-b]pyridine-2-carboxylic acid (3-acetyl-phenyl)-amide], the EC50 under setting [1] was more than 25 µM. `Cc1cc(C)c2c(N)c(C(=O)NCCc3ccccc3)sc2n1` [Compound 257, 3-Amino-4,6-dimethyl-thieno[2,3-b]pyridine-2-carboxylic acid phenethyl-amide]: the EC50 (Vero, 48 h) was more than 25 µM. In the case of `Cc1cc(C)c2c(N)c(C(=O)NCc3ccco3)sc2n1` [Compound 258, 3-Amino-4,6-dimethyl-thieno[2,3-b]pyridine-2-carboxylic acid (furan-2-ylmethyl)-amide], under “Vero, 48 h”, the EC50 is more than 25 µM. As for `COc1ccc(C)cc1NC(=O)c1sc2nc(C)cc(C)c2c1N` [Compound 259, 3-Amino-4,6-dimethyl-thieno[2,3-b]pyridine-2-carboxylic acid (2-methoxy-5-methyl-phenyl)-amide], under setting [1], the EC50 was more than 25 µM.

In the case of `Cc1cc(C)c2c(N)c(C(=O)NCc3ccccc3)sc2n1` [Compound 260, 3-Amino-4,6-dimethyl-thieno[2,3-b]pyridine-2-carboxylic acid benzylamide], the EC50 (Vero, 48 h) is more than 25 µM. Take `CCC1(C)Cc2c(c(N3CCOCC3)nc3sc4c(=O)[nH]cnc4c23)CO1` (centres unmarked) [Compound 261, 2-Ethyl-2-methyl-5-morpholin-4-yl-1,4-dihydro-2H,9H-3-oxa-7-thia-6,9,11-triaza-benzo[c]fluoren-8-one]: the EC50 under setting [1] is more than 25 µM. Turning to `COc1ccc(CNC(=O)c2sc3nc4c(c(C(F)(F)F)c3c2N)CN(C(C)=O)CC4)cc1` [Compound 262, 6-Acetyl-3-amino-4-trifluoromethyl-5,6,7,8-tetrahydro-thieno[2,3-b][1,6]naphthyridine-2-carboxylic acid 4-methoxy-benzylamide], for the setting “Vero, 48 h”, the EC50 was more than 25 µM. Regarding `COC(=O)c1cc(OC)c(OC)cc1NC(=O)c1sc2nc3c(cc2c1N)CN(C)CC3` [Compound 263, 2-[(3-Amino-6-methyl-5,6,7,8-tetrahydro-thieno[2,3-b][1,6]naphthyridine-2-carbonyl)-amino]-4,5-dimethoxy-benzoic acid methyl ester], the EC50 under setting [1] was more than 25 µM. Same read-out and setting: the same measure for `Cc1cc(NC(=O)c2sc3nc4c(cc3c2N)CN(C)CC4)on1` [Compound 264, 3-Amino-6-methyl-5,6,7,8-tetrahydro-thieno[2,3-b][1,6]naphthyridine-2-carboxylic acid (3-methyl-isoxazol-5-yl)-amide]: more than 25 µM; for `Cc1cc(F)ccc1NC(=O)c1sc2nc3c(cc2c1N)CN(C)CC3` [Compound 265, 3-Amino-6-methyl-5,6,7,8-tetrahydro-thieno[2,3-b][1,6]naphthyridine-2-carboxylic acid (4-fluoro-2-methyl-phenyl)-amide]: more than 25 µM; for `COc1ccc(CNC(=O)c2sc3nc4c(cc3c2N)CN(C)CC4)cc1` [Compound 266, 3-Amino-6-methyl-5,6,7,8-tetrahydro-thieno[2,3-b][1,6]naphthyridine-2-carboxylic acid 4-methoxy-benzylamide]: more than 25 µM.

Consider `CN1CCc2nc3sc(C(=O)NCCc4ccccc4)c(N)c3cc2C1` [Compound 267, 3-Amino-6-methyl-5,6,7,8-tetrahydro-thieno[2,3-b][1,6]naphthyridine-2-carboxylic acid phenethyl-amide], for which the EC50 under setting [1] was more than 25 µM. On the same count and under the same terms, the result for `CCc1nnc(NC(=O)c2sc3nc4c(cc3c2N)CN(C)CC4)s1` [Compound 268, 3-Amino-6-methyl-5,6,7,8-tetrahydro-thieno[2,3-b][1,6]naphthyridine-2-carboxylic acid (5-ethyl-[1,3,4]thiadiazol-2-yl)-amide] reads more than 25 µM.

The EC50 is the concentration at which the effect is half-maximal.

Values taken from patent publication US20170121344A1 (Siga Technologies, Inc., priority 2009, published 2017).
